Where two headings read alike, the source gives them in different places.
What was measured:
SaMetRS [1] = molecular target: T1, SaMetRS (Staphylococcus aureus, UniProt P67578); test: pretransfer editing assay (malachite green); type: biochemical
T1 construct: full-length SaMetRS (SaMetRS-FL) (residues 1–657) was expressed and purified in the same manner; made in house; host or cells: E. coli BL21 (DE3)
Protocol: A pretransfer editing assay was employed to evaluate the enzymatic activity of MetRS and the inhibitory activity of fragments to this enzyme. MetRS uses ATP to misactivate the noncognate L-norleucine (L-Norleu) to produce norleucyl adenylate and pyrophosphate (PPi). Norleucyl adenylate was hydrolyzed in the active site through pretransfer editing, and PPi was hydrolyzed by pyrophosphatase (PPiase). The pretransfer editing activity of MetRS was evaluated by measuring phosphate ion (Pi) production using a malachite green assay ([40],[41]). The assays were performed in 80 μl reaction mixtures consisting of 160 nM SaMetRS-FL or SaMetRS-dC or HcMetRS-dN or HcMetRS-dN/C, 100 μM ATP, 20 mM L-Norleu and 50 μg/ml PPiase in reaction buffer (30 mM HEPES pH 7.5, 150 mM NaCl, 30 mM KCl, 40 mM MgCl2, 1 mM DTT) at room temperature ([42]). The pyrophosphates released from the pretransfer editing reaction were decomposed into phosphates by PPiase. Then, 20 μl of malachite green reagent (2.45 M sulfuric acid, 0.1% w/v malachite green, 1.5% w/v ammonium molybdate tetrahydrate, and 0.2% v/v Tween 20) was added to each reaction, and the absorbance at 620 nm was recorded using a Synergy H1 microplate reader.
To measure the inhibitory activity of compounds against SaMetRS, the reactions of an 80 μl mixture consisting of 160 nM SaMetRS-FL (or HcMetRS-dN), 100 μM ATP, 20 mM L-norleucine, 50 μg/ml PPiase and 1 mM fragment (or inhibitor at different concentrations) in reaction buffer were incubated at room temperature for 30 min. Then, 20 μl of malachite green reagent was added to each reaction, and absorbance at 620 nm was recorded. The absorbance at 620 nm of the reaction without adding a compound (fragment or inhibitor) was A1, the absorbance of the reaction without adding MetRS was A0, and the absorbance of the reaction with adding a compound (fragment or inhibitor) was AC. The inhibitory rates of compounds on enzyme activity = (A1 – AC)/(A1 – A0) ×100%. For compounds P80, P21 and REP8839, the inhibitory rates were measured at various concentrations, and the data were fitted in GraphPad Prism 8 using the ‘log[inhibitor] versus response’ equation to calculate the IC50 values.
The inhibitory rates of these fragments against SaMetRS were then tested by a pretransfer editing assay. In the assay, MetRS used ATP to misactivate noncognate L-norleucine (L-Norleu) to produce norleucyl adenylate and PPi. The norleucyl adenylate was then quickly hydrolyzed (or ‘edited’) by MetRS in a tRNA-independent manner ([53–55]). In addition, PPi is hydrolyzed by pyrophosphatase, and phosphate production reflects the activity of MetRS in L-Norleu misactivation and pretransfer editing.

SaMetRS [2] = molecular target: T1, SaMetRS; test: tRNA-dependent ATP consumption assay; type: biochemical
Protocol: (§1) The inhibitory activity of the compounds against the tRNA aminoacylation reaction of MetRS was evaluated by employing an ATP consumption assay ([43],[44]). In brief, 10 μl reactions consisting of 50 nM SaMetRS-FL or 100 nM HcMetRS-dN, 4 μM ATP, 500 μM L-Met, 0.5 mg/ml E. coli total tRNA in reaction buffer (30 mM HEPES pH 7.5, 150 mM NaCl, 30 mM KCl, 40 mM MgCl2, 0.1% BSA and 1 mM DTT) and compounds (P80, P21 and REP8839) at various concentrations were prepared and incubated at room temperature for 30 min. The reactions were then stopped by adding 10 μl of Kinase-Glo™ Reagent (Promega) and incubated at room temperature for 15 min. The luminescence, which reflects the concentration of the remaining ATP, was read on a Synergy H1 microplate reader (BioTek). The luminescence of the reaction without adding a compound was Lum1, the absorbance of the reaction without adding MetRS was Lum0, and the luminescence of the reaction with the added compound was LumC. The inhibitory rates of a compound on enzyme activity = (LumC – Lum1)/(Lum0 – Lum1) × 100%. The data were fitted in GraphPad Prism 8 with the ‘log[compound] versus response’ equation to calculate the IC50 values.

HcMetRS = molecular target: T2, HcMetRS (Homo sapiens, UniProt P56192); test: tRNA-dependent ATP consumption assay; type: biochemical; settings: HcMetRS-dN, even at high concentrations
T2 construct: a truncated HcMetRS without the N-terminal part (HcMetRS-dN) (residues 221–900); His6-SUMO (N, cleaved yes); made in house; host or cells: E. coli BL21 (DE3)
T2 sequence (P56192 221-900): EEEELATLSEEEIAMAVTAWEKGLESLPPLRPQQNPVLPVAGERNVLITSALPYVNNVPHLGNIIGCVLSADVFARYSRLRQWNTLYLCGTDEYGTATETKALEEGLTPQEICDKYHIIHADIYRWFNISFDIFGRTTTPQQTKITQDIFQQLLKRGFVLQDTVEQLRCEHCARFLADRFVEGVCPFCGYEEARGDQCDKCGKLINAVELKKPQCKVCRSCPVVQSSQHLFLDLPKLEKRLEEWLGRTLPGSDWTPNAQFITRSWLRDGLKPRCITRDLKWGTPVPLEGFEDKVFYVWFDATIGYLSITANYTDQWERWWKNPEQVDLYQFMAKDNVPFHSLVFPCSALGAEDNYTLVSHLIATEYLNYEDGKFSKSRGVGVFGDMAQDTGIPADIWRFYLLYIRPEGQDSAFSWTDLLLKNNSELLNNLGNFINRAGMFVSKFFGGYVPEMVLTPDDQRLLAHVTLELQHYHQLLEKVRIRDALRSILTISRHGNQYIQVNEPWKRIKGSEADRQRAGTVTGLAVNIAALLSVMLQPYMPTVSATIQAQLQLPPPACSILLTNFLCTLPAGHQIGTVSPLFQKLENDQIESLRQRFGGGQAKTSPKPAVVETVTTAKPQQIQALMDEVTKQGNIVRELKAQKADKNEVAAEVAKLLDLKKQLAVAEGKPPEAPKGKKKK
Protocol: as §1

SaMetRS [3] = molecular target: T1, SaMetRS; test: biochemical; type: binding
Protocol: Ligand binding usually stabilizes the protein during the thermal denaturation process, and a tighter binder causes a larger positive shift in the protein melting temperature (Tm) ([38]). The binding of ligands to SaMetRS was evaluated by the fluorescence-based thermal shift assay as described ([39]). Briefly, mixtures with a final volume of 20 μl that contained 4 μg of SaMetRS-FL, 4 × SYPRO orange fluorescence dye (Sigma-Aldrich) and different ligands (10 μM REP8839, 5 mM L-Met, 5 mM ATP, or 1 mM fragments) in TSA buffer (100 mM Tris pH 8.0, 150 mM NaCl) were prepared in 96-well plates. The mixtures were incubated at 25°C for 10 min and then heated from 25°C to 95°C at a rate of 1°C/min. The fluorescence intensity was recorded every 20 s by using a StepOnePlus Real-Time PCR instrument (Life Technologies). The melting curves, using the fluorescence signal as the ordinate and the temperature as the abscissa, were fitted by using StepOne™ software v2.3 to obtain the melting temperature (Tm) of the protein. Triplicate assays were performed, and the average Tm values were used. The thermal stabilization of SaMetRS that was caused by a ligand (a fragment, substrate or inhibitor) was termed ΔTm, and it was calculated by subtracting the Tm of SaMetRS without the ligand from the Tm of SaMetRS supplemented with the ligand as follows:
Fragment screening is a fast-growing strategy for designing drugs with novel scaffolds as well as for identifying new druggable sites ([51],[52]). A total of 1049 fragments or low molecular weight natural products were screened by using TSA to search for new binders to SaMetRS. Considering the potential beneficial effect of ATP on ligand binding to SaMetRS, a parallel experiment was carried out using SaMetRS, which was saturated with 5 mM ATP. Fragments were diluted to a final concentration of 1.0 mM. The Tm of apo or ATP-bound SaMetRS without adding fragments was used as a blank control, and REP8839 was used as a positive control. We considered fragments that could increase the Tm value of SaMetRS by more than 1.0°C (ΔTm > 1.0°C) as positive hits (Figure 4B).

SaMetRS [4] = molecular target: T1, SaMetRS; test: isothermal titration calorimetry (ITC) assay; type: binding
Protocol: The affinities of ligands to SaMetRS were measured by using a MicroCal PEAQ-ITC microcalorimeter. […] The interval between two injections was 150 s. The disassociation constants (Kd) were determined by fitting the calorimetric data to a one-site binding model by using MicroCal PEAQ-ITC analysis software.

[5] = read-out: ΔTm (°C) Tm(Frg)-Tm(apo)
[6] = read-out: ΔTm (°C) Tm(Frg+ATP)-Tm(ATP)

T1 sequence (P67578 whole entry, the tested form may be a part): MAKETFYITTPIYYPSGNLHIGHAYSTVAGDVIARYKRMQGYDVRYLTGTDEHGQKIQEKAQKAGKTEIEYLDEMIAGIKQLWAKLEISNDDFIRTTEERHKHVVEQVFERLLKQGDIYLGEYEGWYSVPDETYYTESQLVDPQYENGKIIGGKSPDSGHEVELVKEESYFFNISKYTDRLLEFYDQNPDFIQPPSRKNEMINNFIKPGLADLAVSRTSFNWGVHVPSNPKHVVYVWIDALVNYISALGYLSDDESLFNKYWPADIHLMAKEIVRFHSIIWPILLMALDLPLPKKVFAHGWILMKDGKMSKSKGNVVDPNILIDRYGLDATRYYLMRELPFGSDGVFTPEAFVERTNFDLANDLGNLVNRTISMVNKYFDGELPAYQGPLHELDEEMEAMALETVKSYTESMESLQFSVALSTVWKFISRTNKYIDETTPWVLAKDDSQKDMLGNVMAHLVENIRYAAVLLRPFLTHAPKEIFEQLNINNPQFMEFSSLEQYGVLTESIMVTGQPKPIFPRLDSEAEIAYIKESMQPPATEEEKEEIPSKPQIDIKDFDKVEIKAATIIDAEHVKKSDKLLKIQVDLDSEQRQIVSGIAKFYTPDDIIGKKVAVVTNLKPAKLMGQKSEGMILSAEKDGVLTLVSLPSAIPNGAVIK

Compound	inhibition at 1000 µM (SaMetRS [1]; read-out: Inhibitory rate (%))	ΔTm at 1000 µM (SaMetRS [3]; [5])	ΔTm at 1000 µM (SaMetRS [3]; [6])	other results
N[C@@H]1C[C@@H]1c1ccccc1 [B54]	< 20%	–	–	–
CNC(=O)c1ccc2c(c1)nc(-c1ccc(Br)c(O)c1)n2C(CNC(=O)COc1ccccc1C(C)(C)C)c1ccc(OC)c(OC)c1 (centres unmarked) [P80]	–	–	–	IC50 (SaMetRS [2]): 0.223 ± 0.0123 µM; inhibition of HcMetRS (HcMetRS): did not significantly inhibit; IC50 (SaMetRS [1]): 0.0946 ± 0.0067 µM
NCc1c[nH]c2ccccc12 [B63]	38.2 ± 3.5%	0.8 °C	1.7 °C	–
NCCNc1cccc2ccccc12 [M2-293]	67.3 ± 1.1%	–	1.3 °C	–
C=C(F)c1sc(CNCCCNc2cc(O)c3ccccc3n2)c(C)c1Br [REP8839, reference compound]	–	–	–	inhibition at 10 µM (SaMetRS [1]; read-out: Inhibitory rate (%)): > 99%; ΔTm at 10 µM (SaMetRS [3]; [5]): 11.8 °C; ΔTm at 10 µM (SaMetRS [3]; [6]): 17.5 °C
CNC(=O)c1ccc2c(c1)nc(-c1ccc(Br)c(O)c1)n2C(CNC(=O)OCc1ccccc1)c1ccc(OC)c(OC)c1 (centres unmarked) [P21]	–	–	–	IC50 (SaMetRS [2]; 50 nM SaMetRS-FL, 4 μM ATP, 500 μM L-Met, read-out: IC50, ATP consumption assay): 3.11 ± 0.48 µM; inhibition of HcMetRS (HcMetRS): did not significantly inhibit; IC50 (SaMetRS [1]): 0.428 ± 0.053 µM
Clc1cn2ccsc2n1 [M3-146]	< 20%	-0.1 °C	1.8 °C	–
NC1Cc2ccccc2C1 [M2-80]	< 20%	-0.1 °C	2.5 °C	–
Nc1nc2ccccc2[nH]1 [M1-68]	< 20%	0.1 °C	1.3 °C	–
O=[N+]([O-])c1ccc(O)c(O)c1 [A6]	< 20%	1.1 °C	1.2 °C	–
CC(C)(C)Sc1cccnc1N [T2-15]	65.3 ± 3.1%	2.5 °C	2.5 °C	Kd (SaMetRS [4]; SaMetRS apo, without ATP, 25°C, read-out: Kd, fragment to SaMetRS alone): 78.7 ± 7.1 µM; Kd (SaMetRS [4]; SaMetRS preincubated with 5 mM ATP, 25°C, read-out: Kd, fragment to SaMetRS saturated with ATP): 54.6 ± 2.6 µM
Nc1ncnc2c1ncn2[C@@H]1O[C@H](COP(=O)(O)OP(=O)(O)OP(=O)(O)O)[C@@H](O)[C@H]1O [ATP]	–	–	–	fold more potent Kd of ATP with M3-88 premixed versus apo protein (SaMetRS [4]; SaMetRS premixed with M3-88 vs apo): approximately 4 fold; Kd (SaMetRS [4]; apo protein, 25°C, read-out: Kd, ATP to SaMetRS): 52 ± 6.7 µM; Kd (SaMetRS [4]; read-out: Kd, ATP to SaMetRS saturated with M3-88, SaMetRS preincubated with 5 mM M3-88, 25°C): 14.1 ± 0.7 µM
O=[N+]([O-])c1ccc2[nH]ncc2c1 [B128]	30.4 ± 1.9%	1.3 °C	2.1 °C	–

Reference: publication PMC9071491, “Fragment screening and structural analyses highlight the ATP-assisted ligand binding for inhibitor discovery against type 1 methionyl-tRNA synthetase” (Nucleic Acids Research, 2022)
